Source: US20240299359A1, “PHARMACEUTICAL COMPOSITION FOR ANIMALS CONTAINING 5-HYDROXY-METHYLIMIDAZOLIDINE-2,4-DIONE COMPOUND AS ACTIVE INGREDIENT” (KYONGBO PHARM. CO., LTD., priority 2021, published 2024)
Where “and” joins values, the source holds several entries; their conditions need not be identical. Equal values may be shown once.

Key:
beagles [1] = assay: 13-week repeated oral toxicity: blood coagulation test (PT, aPTT, fibrinogen); assay type: in vivo, beagle
Protocol: Blood Coagulation Test (PT, aPTT, Fibrinogen)
2 ml of collected blood was placed in a 3.2% sodium citrate tube, and centrifuged at 4,000 rpm for 10 minutes at 4° C., and plasma was collected for blood coagulation analysis. Prothrombin time (PT), activated partial thromboplastin time (aPTT), and fibrinogen (FIB) were analyzed using a blood coagulation measuring device (Werfen ACL ELITE Pro).

beagles [2] = assay: 13-week repeated oral toxicity: eye test; assay type: in vivo, beagle; details: before and after administration, 13 weeks
Protocol: Eye test were conducted in the afternoon in the blood test day and blood donation day before administration (pre), the 4th week (day 29) after administration, the 8th week (day 57), and the 13th week (day 92) after administration. After observing the appearance of the left and right eyes on all the subjects, both the left and right eyes were dilated with a mydriatic agent (Mydrin®-P eye drops, ingredients: tropicamide/phenylephrine hydrochloride Taejun Pharmaceutical), and then the vitreous body and retina were tested with an ophthalmoscope (Vantage Plus LED Convertible Wired, Keeler Instruments Inc. USA).

[3] = G2 200 mg/kg, repeated administration for 13 week, female, group mean
[4] = G2 200 mg/kg, repeated administration for 13 week, female, individual animals
[5] = G2 200 mg/kg, repeated administration for 13 week, male, group mean
[6] = G2 200 mg/kg, repeated administration for 13 week, male, individual animals
[7] = G3 500 mg/kg, repeated administration for 13 week, female, group mean
[8] = G3 500 mg/kg, repeated administration for 13 week, female, individual animals
[9] = G3 500 mg/kg, repeated administration for 13 week, male, group mean
[10] = G3 500 mg/kg, repeated administration for 13 week, male, individual animals
[11] = G4 1,000 mg/kg, repeated administration for 13 week, female, group mean
[12] = G4 1,000 mg/kg, repeated administration for 13 week, female, individual animals
[13] = G4 1,000 mg/kg, repeated administration for 13 week, male, group mean
[14] = G4 1,000 mg/kg, repeated administration for 13 week, male, individual animals
[15] = before administration (day 0), 200 mg/kg group (G2), female, individual animals, 200 mg/kg
[16] = before administration (day 0), 200 mg/kg group (G2), female
[17] = before administration (day 0), 200 mg/kg group (G2), male, individual animals, 200 mg/kg
[18] = before administration (day 0), 200 mg/kg group (G2), male
[19] = before administration (day 0), 500 mg/kg group (G3), female, individual animals, 500 mg/kg
[20] = before administration (day 0), 500 mg/kg group (G3), female
[21] = before administration (day 0), 500 mg/kg group (G3), male, individual animals, 500 mg/kg
[22] = before administration (day 0), 500 mg/kg group (G3), male
[23] = before administration (day 0), 1,000 mg/kg group (G4), female, individual animals
[24] = before administration (day 0), 1,000 mg/kg group (G4), female
[25] = before administration (day 0), 1,000 mg/kg group (G4), male, individual animals
[26] = before administration (day 0), 1,000 mg/kg group (G4), male

CN1C(=O)NC(=O)C1O (stereo not shown) [KBP-001, 5-hydroxy-1-methylimidazolidine-2,4-dione] was tested, and the FIB (beagles [1]; [3]) was 195.00 mg/dL, the PT (beagles [1]; [3]) was 7.67 s and the aPTT (beagles [1]; [3]) was 14.03 s. For the same compound, the FIB (beagles [1]; [4]) was 170 mg/dL and 164 mg/dL and 251 mg/dL, the PT (beagles [1]; [4]) was 7.6 sec (2×) and 7.8 sec and the aPTT (beagles [1]; [4]) was 13.8 s and 13.3 s and 15.0 s. The FIB (beagles [1]; [5]) was 293.00 mg/dL, the PT (beagles [1]; [5]) was 7.87 s and the aPTT (beagles [1]; [5]) was 13.13 s. For the same compound, the FIB (beagles [1]; [6]) was 299 mg/dL and 268 mg/dL and 312 mg/dL, the PT (beagles [1]; [6]) was 8.5 s and 8.2 s and 6.9 s and the aPTT (beagles [1]; [6]) was 12.7 s and 13.0 s and 13.7 s. The FIB (beagles [1]; [7]) was 250.00 mg/dL, the PT (beagles [1]; [7]) was 7.53 s and the aPTT (beagles [1]; [7]) was 14.37 s. For the same compound, the FIB (beagles [1]; [8]) was 212 mg/dL and 230 mg/dL and 308 mg/dL, the PT (beagles [1]; [8]) was 8.6 s and 6.7 s and 7.3 s and the aPTT (beagles [1]; [8]) was 15.2 s and 13.7 s and 14.2 s. For the same compound, the FIB (beagles [1]; [9]) was 312.67 mg/dL, the PT (beagles [1]; [9]) was 7.20 s and the aPTT (beagles [1]; [9]) was 15.17 s. The FIB (beagles [1]; [10]) was 347 mg/dL and 302 mg/dL and 289 mg/dL, the PT (beagles [1]; [10]) was 7.4 s and 7.2 s and 7.0 s and the aPTT (beagles [1]; [10]) was 15.3 s and 14.8 s and 15.4 s. It also gave an FIB (beagles [1]; [11]) of 307.00 mg/dL, a PT (beagles [1]; [11]) of 7.57 s and an aPTT (beagles [1]; [11]) of 14.03 s. The FIB (beagles [1]; [12]) was 442 mg/dL and 273 mg/dL and 206 mg/dL, the PT (beagles [1]; [12]) was 7.1 sec (2×) and 8.5 sec and the aPTT (beagles [1]; [12]) was 12.9 s and 13.0 s and 16.2 s. The FIB (beagles [1]; [13]) was 318.67 mg/dL, the PT (beagles [1]; [13]) was 7.53 s and the aPTT (beagles [1]; [13]) was 13.93 s. For the same compound, the FIB (beagles [1]; [14]) was 292 mg/dL and 386 mg/dL and 278 mg/dL, the PT (beagles [1]; [14]) was 7.6 s and 7.3 s and 7.7 s and the aPTT (beagles [1]; [14]) was 15.2 s and 12.8 s and 13.8 s. The FIB (beagles [1]; [15]) was 114 mg/dL and 184 mg/dL and 218 mg/dL, the PT (beagles [1]; [15]) was 8.5 s and 7.6 s and 7.3 s and the aPTT (beagles [1]; [15]) was 14.9 s and 15.3 s and 14.0 s. The “FIB, Mean” value (beagles [1]; [16]) was 172.00 mg/dL, the “PT, Mean” value (beagles [1]; [16]) was 7.80 s and the “aPTT, Mean” value (beagles [1]; [16]) was 14.73 s. The FIB (beagles [1]; [17]) was 270 mg/dL and 254 mg/dL and 233 mg/dL, the PT (beagles [1]; [17]) was 9.2 s and 8.4 s and 7.2 s and the aPTT (beagles [1]; [17]) was 15.5 s and 12.1 s and 12.4 s. The “FIB, Mean” value (beagles [1]; [18]) was 252.33 mg/dL, the “PT, Mean” value (beagles [1]; [18]) was 8.27 s and the “aPTT, Mean” value (beagles [1]; [18]) was 13.33 s. For the same compound, the FIB (beagles [1]; [19]) was 186 mg/dL and 199 mg/dL and 268 mg/dL, the PT (beagles [1]; [19]) was 8.8 s and 7.4 s and 7.9 s and the aPTT (beagles [1]; [19]) was 14.5 s and 11.9 s and 13.8 s. For the same compound, the “FIB, Mean” value (beagles [1]; [20]) was 217.67 mg/dL, the “PT, Mean” value (beagles [1]; [20]) was 8.03 s and the “aPTT, Mean” value (beagles [1]; [20]) was 13.40 s. For the same compound, the FIB (beagles [1]; [21]) was 235 mg/dL and 254 mg/dL and 239 mg/dL, the PT (beagles [1]; [21]) was 7.6 s and 7.2 s and 7.3 s and the aPTT (beagles [1]; [21]) was 15.2 s and 14.6 s and 12.1 s. The “FIB, Mean” value (beagles [1]; [22]) was 242.67 mg/dL, the “PT, Mean” value (beagles [1]; [22]) was 7.37 s and the “aPTT, Mean” value (beagles [1]; [22]) was 13.97 s. The FIB (beagles [1]; [23]) was 237 mg/dL and 230 mg/dL and 258 mg/dL, the PT (beagles [1]; [23]) was 7.6 s and 7.8 s and 8.3 s and the aPTT (beagles [1]; [23]) was 11.1 s and 14.2 s and 15.6 s. The “FIB, Mean” value (beagles [1]; [24]) was 194.73 mg/dL, the “PT, Mean” value (beagles [1]; [24]) was 6.53 s and the “aPTT, Mean” value (beagles [1]; [24]) was 11.62 s. For the same compound, the FIB (beagles [1]; [25]) was 305 mg/dL and 312 mg/dL and 237 mg/dL, the PT (beagles [1]; [25]) was 8.3 s and 7.2 s and 8.0 s and the aPTT (beagles [1]; [25]) was 14.8 s and 11.3 s and 14.7 s. For the same compound, the “FIB, Mean” value (beagles [1]; [26]) was 200.81 mg/dL, the “PT, Mean” value (beagles [1]; [26]) was 6.57 s and the “aPTT, Mean” value (beagles [1]; [26]) was 11.52 s. For the same compound, the eye test findings (beagles [2]) was “no specific findings were observed”.
